According to patent publication US8436011B2, “Pyridinopyridinone derivatives, preparation thereof and therapeutic use thereof” (Sanofi, priority 2008, dated 2013):
Counter-ions that a name gives are not always drawn. Like-named read-outs stand apart in the source and are kept apart here.

Columns and labels:
[1] = target: T1, fusion protein Tel/PDGF-R (PDGF-Rβ kinase domain) in HEK cells (Homo sapiens, UniProt P09619); experiment: Ex vivo activity: plasma of orally treated mice tested on PDGF-R autophosphorylation in HEK Tel/PDGF-R cells (ELISA); parameters: species or system female Balb/c mice; details: HEK293, mouse, po, 30 mg/kg po, read-out: % inhibition of autophosphorylation of PDGFR tyrosine kinase in HEK cells
T1 construct: the transmembrane and intracellular part of the PDGF-Rβ receptor; N-terminal part of the Tel transcription factor (ETV6); expressed in transfected cells; host or cells: HEK cells (transient transfection); the other entry of the earlier key: ETV6 (P41212, Transcription factor ETV6)
Procedure: Ex vivo activity of the compounds of the invention was measured. These compounds are thus administered orally to female Balb/c mice at a dose of 10, 30 or 100 mg/kg in suspension or in solution in a vehicle such as methylcellulose/Tween and the inhibition of the tyrosine kinase activity is measured in vitro in a cell test, using plasma collected at 15 minutes, 1 hour and 4 hours.
1) Protocol for Administration of the Products to the Mice
The products are prepared in a mortar with 0.5% Tween 80 and 0.6% methylcellulose qs final volume. Depending on the case, preparations of different vehicles may be used: water, mixture of labrasol solutol 5% glucose-water. The suspended or dissolved products are administered by gavage (10 ml/kg) to female Balb/c mice 8 to 15 weeks old.
The animals are then collected at the time given by the protocol (15 min, 1 hour, 4 hours, 16 hours).
The animals are anaesthetized by intraperitoneal injection (10 ml/kg) of a ketamine (0.1 g/kg)-xylazine (20 mg/kg) mixture. […] The blood sample is collected from the vein or the artery using a dry syringe and needle. The blood is immediately transferred into heparin lithium tubes (BD microtainer). Centrifugation for 3 minutes at 12 000 rpm allows recovery of the plasma, on which the biochemical test may be performed after storage by freezing at −20° C.
2) Preparation of the HEK Tel/PDGF-R Cells and Measurement of the Phosphorylation of PDGF-R
In order to detect the ex vivo activity of the products using the mouse plasmas, the HEK cells are transiently transfected beforehand with an expression vector coding for the fusion protein Tel/PDGF-R (fusion protein described previously). After 24 hours of transfection, the cells are deprived of serum overnight and then incubated for 30 minutes with the animal plasmas treated with the products of the invention. The cells are then lysed in RIPA buffer, and detection of the phosphorylation of PDGF-Rβ is then performed via the ELISA technique, using a commercial kit (R&D Systems, DYC1767). The results are expressed as a percentage of inhibition of the autophosphorylation.
In this test of measurement of the ex vivo activity, the effect of the compounds of the invention is quantified by the percentage of inhibition of phosphorylation of the kinase domain of the PDGF-Rβ receptor in HEK cells, induced by the inhibitory activity of the product present in the plasma of the treated animals, as described in the following table: […]

T1 sequence (P09619 with tags, fused parts or gaps): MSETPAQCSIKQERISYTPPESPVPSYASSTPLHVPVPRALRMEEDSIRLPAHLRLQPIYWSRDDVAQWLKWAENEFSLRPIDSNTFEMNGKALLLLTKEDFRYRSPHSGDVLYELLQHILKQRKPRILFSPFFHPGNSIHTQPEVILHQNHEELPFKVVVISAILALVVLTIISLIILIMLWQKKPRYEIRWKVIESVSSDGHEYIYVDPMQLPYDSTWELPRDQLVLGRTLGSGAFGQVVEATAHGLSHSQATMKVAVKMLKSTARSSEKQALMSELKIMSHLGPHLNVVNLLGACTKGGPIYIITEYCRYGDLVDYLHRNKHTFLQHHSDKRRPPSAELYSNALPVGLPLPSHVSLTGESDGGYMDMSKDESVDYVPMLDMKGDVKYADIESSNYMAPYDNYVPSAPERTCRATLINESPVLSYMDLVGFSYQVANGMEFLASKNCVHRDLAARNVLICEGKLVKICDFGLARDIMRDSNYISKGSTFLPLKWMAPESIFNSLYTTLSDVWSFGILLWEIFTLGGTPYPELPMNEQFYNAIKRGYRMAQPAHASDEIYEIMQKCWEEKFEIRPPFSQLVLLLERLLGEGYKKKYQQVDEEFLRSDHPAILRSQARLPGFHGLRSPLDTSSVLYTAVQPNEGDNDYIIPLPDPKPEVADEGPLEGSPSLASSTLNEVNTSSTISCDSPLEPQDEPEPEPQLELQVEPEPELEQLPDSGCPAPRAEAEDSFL

melting point [°C] | SMILES | further results
176 | CCn1c(N)c(C(=O)NC)c(=O)c2ccc(-c3cccc(CC(=O)Nc4ccccn4)c3)nc21 (as salt: HCl) [compound 63, 2-amino-1-ethyl-N-methyl-4-oxo-7-{3-[2-oxo-2-(pyrid-2-ylamino)ethyl]-phenyl}-1,4-dihydro-1,8-naphthyridine-3-carboxamide] | –
242 | CCn1c(N)c(C(=O)NC)c(=O)c2ccc(-c3ccc(CCNc4ccccn4)cc3)nc21 (as salt: HCl) [compound 64, 2-amino-1-ethyl-N-methyl-4-oxo-7-{4-[2-(pyrid-2-ylamino)ethyl]phenyl}-1,4-dihydro-1,8-naphthyridine-3-carboxamide] | –
180 | CCn1c(N)c(C(=O)NC)c(=O)c2ccc(-c3ccc(CC(=O)NC[C@H]4CCCN4CCF)cc3)nc21 (as salt: hydrochloride) [compound 27, 2-amino-1-ethyl-7-{4-[2-({[(2R)-1-(2-fluoroethyl)pyrrolidin-2-yl]methyl}-amino)-2-oxoethyl]phenyl}-N-methyl-4-oxo-1,4-dihydro-1,8-naphthyridine-3-carboxamide] | –
262 | CCn1c(N)c(C(=O)NC)c(=O)c2ccc(-c3ccc(CC(=O)NCCOC)cc3)nc21 [compound 9, 2-amino-1-ethyl-7-(4-{2-[(2-methoxyethyl)amino]-2-oxoethyl}phenyl)-N-methyl-4-oxo-1,4-dihydro-1,8-naphthyridine-3-carboxamide] | –
> 260 | CCn1c(N)c(C(=O)NC)c(=O)c2ccc(-c3ccc(CC(=O)NC4CC4)cc3)nc21 [compound 10, 2-amino-7-{4-[2-(cyclopropylamino)-2-oxoethyl]phenyl}-1-ethyl-N-methyl-4-oxo-1,4-dihydro-1,8-naphthyridine-3-carboxamide] | –
315 | CCn1c(N)c(C(=O)NC)c(=O)c2ccc(-c3ccc(CC(=O)NC(C)C)cc3)nc21 [compound 11, 2-amino-1-ethyl-N-methyl-7-(4-{2-[(1-methylethyl)amino]-2-oxoethyl}-phenyl)-4-oxo-1,4-dihydro-1,8-naphthyridine-3-carboxamide] | –
290 | CCn1c(N)c(C(=O)NC)c(=O)c2ccc(-c3ccc(CC(=O)Nc4cnccn4)cc3)nc21 [compound 13, 2-amino-1-ethyl-N-methyl-4-oxo-7-{4-[2-oxo-2-(pyrazin-2-ylamino)ethyl]-phenyl}-1,4-dihydro-1,8-naphthyridine-3-carboxamide] | –
262 | CCN1CCC[C@H]1CNC(=O)Cc1ccc(-c2ccc3c(=O)c(C(=O)NC)c(N)n(CC)c3n2)cc1 [compound 15, 2-amino-1-ethyl-7-{4-[2-({[(2S)-1-ethylpyrrolidin-2-yl]methyl}amino)-2-oxoethyl]phenyl}-N-methyl-4-oxo-1,4-dihydro-1,8-naphthyridine-3-carboxamide] | –
– | CCn1c(N)c(C(=O)NC)c(=O)c2ccc(-c3ccc(CC(=O)NCCN4CCOCC4)cc3)nc21 [compound 18, 2-amino-1-ethyl-N-methyl-7-(4-{2-[(2-morpholin-4-ylethyl)amino]-2-oxoethyl}phenyl)-4-oxo-1,4-dihydro-1,8-naphthyridine-3-carboxamide] | inhibition at 30 mg/kg ([1]; plasma collected at 15 min): 55%; inhibition at 30 mg/kg ([1]; plasma collected at 1 h): 62%; inhibition at 30 mg/kg ([1]; plasma collected at 4 h): 17%
266 | CCn1c(N)c(C(=O)NC)c(=O)c2ccc(-c3ccc(CC(=O)Nc4ccccn4)nc3)nc21 [compound 21, 2-amino-1-ethyl-N-methyl-4-oxo-7-{6-[2-oxo-2-(pyrid-2-ylamino)-ethyl]pyrid-3-yl}-1,4-dihydro-1,8-naphthyridine-3-carboxamide] | –
> 260 | CCn1c(N)c(C(=O)NC)c(=O)c2ccc(-c3ccc(CC(=O)NC[C@H]4CCCN4S(C)(=O)=O)cc3)nc21 [compound 28, 2-amino-1-ethyl-N-methyl-7-{4-[2-({[(2R)-1-(methylsulfonyl)pyrrolidin-2-yl]methyl}amino)-2-oxoethyl]phenyl}-4-oxo-1,4-dihydro-1,8-naphthyridine-3-carboxamide] | –
> 260 | CCn1c(N)c(C(=O)NC)c(=O)c2ccc(-c3ccc(CC(=O)NC[C@H]4CCCN4CC(F)(F)F)cc3)nc21 [compound 30, 2-amino-1-ethyl-N-methyl-4-oxo-7-{4-[2-oxo-2-({[(2R)-1-(2,2,2-trifluoroethyl)pyrrolidin-2-yl]methyl}amino)ethyl]phenyl}-1,4-dihydro-1,8-naphthyridine-3-carboxamide] | –
252 | CCn1c(N)c(C(=O)NC)c(=O)c2ccc(-c3ccc(CC(=O)NCCc4cccn4C)cc3)nc21 [compound 42, 2-amino-1-ethyl-N-methyl-7-[4-(2-{[2-(1-methyl-1H-pyrrol-2-yl)-ethyl]amino}-2-oxoethyl)phenyl]-4-oxo-1,4-dihydro-1,8-naphthyridine-3-carboxamide] | –
218 | CCN1CCCC1CNC(=O)CCc1ccc(-c2ccc3c(=O)c(C(=O)NC)c(N)n(CC)c3n2)cc1 (centres unmarked) [compound 46, 2-amino-1-ethyl-7-[4-(3-{[(1-ethylpyrrolidin-2-yl)methyl]amino}-3-oxopropyl)phenyl]-N-methyl-4-oxo-1,4-dihydro-1,8-naphthyridine-3-carboxamide] | –
300 | CCN1CCCC1CNC(=O)Cc1ccc(-c2ccc3c(=O)c(C(=O)NC)c(N)n(CC(F)(F)F)c3n2)cc1 (centres unmarked) [compound 49, 2-amino-7-[4-(2-{[(1-ethylpyrrolidin-2-yl)methyl]amino}-2-oxoethyl)-phenyl]-N-methyl-4-oxo-1-(2,2,2-trifluoroethyl)-1,4-dihydro-1,8-naphthyridine-3-carboxamide] | –
233 | CCN1CCC[C@@H]1CNC(=O)Cc1ccc(-c2ccc3c(=O)c(C(=O)NC)c(N)n(CC(C)C)c3n2)cc1 [compound 53, 2-amino-7-{4-[2-({[(2R)-1-ethylpyrrolidin-2-yl]methyl}amino)-2-oxoethyl]-phenyl}-N-methyl-1-(2-methylpropyl)-4-oxo-1,4-dihydro-1,8-naphthyridine-3-carboxamide] | –
214 | CCN1CCC[C@@H]1CNC(=O)Cc1nc(-c2ccc3c(=O)c(C(=O)NC)c(N)n(CC)c3n2)cs1 [compound 55, 2-amino-1-ethyl-7-{2-[2-({[(2R)-1-ethylpyrrolidin-2-yl]methyl}amino)-2-oxoethyl]-1,3-thiazol-4-yl}-N-methyl-4-oxo-1,4-dihydro-1,8-naphthyridine-3-carboxamide] | –
253 | CCN1CCC[C@@H]1CNC(=O)Cc1ccc(-c2ccc3c(=O)c(C(=O)NC)c(N)n(CC)c3n2)c(F)c1 [compound 56, 2-amino-1-ethyl-7-{4-[2-({[(2R)-1-ethylpyrrolidin-2-yl]methyl}amino)-2-oxoethyl]-2-fluorophenyl}-N-methyl-4-oxo-1,4-dihydro-1,8-naphthyridine-3-carboxamide] | –
275 | CCN1CCCC1CNC(=O)Cc1ccc(-c2ccc3c(=O)c(C(=O)NC)c(N)n(CC)c3n2)cc1F (centres unmarked) [compound 58, 2-amino-7-[3-fluoro-4-(2-{[(1-ethylpyrrolidin-2-yl)methyl]amino}-2-oxoethyl)phenyl]-1-ethyl-N-methyl-4-oxo-1,4-dihydro-1,8-naphthyridine-3-carboxamide] | –
277 | CCN1CCCC1CNC(=O)Cc1ccc(-c2ccc3c(=O)c(C(=O)NC)c(N)n(CC)c3n2)cc1C (centres unmarked) [compound 59, 2-amino-7-[3-methyl-4-(2-{[(1-ethylpyrrolidin-2-yl)methyl]amino}-2-oxoethyl)phenyl]-1-ethyl-N-methyl-4-oxo-1,4-dihydro-1,8-naphthyridine-3-carboxamide] | –
178 | CCN1CCCC1CNC(=O)Cc1ccc(-c2ccc3c(=O)c(C(=O)NC)c(N)n(CC)c3n2)c(C)c1 (centres unmarked) [compound 61, 2-amino-1-ethyl-7-[4-(2-{[(1-ethylpyrrolidin-2-yl)methyl]amino}-2-oxoethyl)-2-methylphenyl]-N-methyl-4-oxo-1,4-dihydro-1,8-naphthyridine-3-carboxamide] | –
